Experimental data taken from US5324747A, “N-substituted anilines, inhibitors of phospholipases A2” (Hoffmann-La Roche Inc., priority 1992, dated 1994).
Structures can show the parent of a compound that is named as a salt.

Tested on: PLA2 Rat Paw Edema
Assay: Phospholipase A2 Rat Paw Edema
Assay type: in vivo, Lewis rats
Conditions: Rattus norvegicus; 2 hr; 30 mg/kg; read-out: % Inhib of PLA2 Rat Paw Edema 2 hr (30 mg/kg)
Method: Phospholipase A2 Rat Paw Edema
Representation compounds of the invention were tested in rats to determine their ability to inhibit the acute inflammatory response induced by the injection of snake venom phospholipase A2. Test compounds are administered intraperitoneally or orally to groups of seven Lewis rats (≈200 gm) 1 hr prior to phospholipase A2 administration. The test compounds are dissolved in dimethyl sulfoxide for intraperitoneal administration and dissolved or suspended in Labrafil M-1944CS for oral administration. At 0 hr, 5 ug (10 units) of purified phospholipase A2 from Naja naja venom (Sigma Chem. Co.) dissolved in 0.1 mL of pyrogen free saline is injected subplantarly into the right hind paw to elicit the inflammatory response. The volume (in mL) of the right hind paw is measured by immersion of the paw to the level of the lateral malleolus in an aqueous plethysmometer immediately prior to the injection of phospholipase A2 and then at 0.5, 2 and 4 hr after phospholipase A2 injection. The paw edema is calculated by subtracting the zero time reading from the readings taken after injection. The percent change of the edema volume from the vehicle treated control is calculated to determine the activity of the test compound. Statistical analysis of the mean paw edema values of the control versus the treated groups is performed using Student's t-test. Significance of changes from mean value for vehicle-treated animals (*p<0.05, **p<0.01, ***p<0.001, ns/not significant).

Structure (SMILES)	inhibition in vivo at 30 mg/kg
CCCCCCCCC(O)COc1cc(OCC(O)CCCCCCCC)cc(N(CC(=O)O)CC(=O)O)c1 (racemic) [Example 6h, rac-N-(carboxymethyl)-N-[3,5-bis[[2-hydroxydecyl)oxy]phenyl]glycine]	5%
CCCCOc1cc(OCCCC)cc(N(CC(=O)O)CC(=O)O)c1 [Example 6a, N-[3,5-bis(butoxy)phenyl]-N-(carboxymethyl)glycine]	33%
CCCCCCOc1cc(OCCCCCC)cc(N(CC(=O)O)CC(=O)O)c1 [Example 6b, N-(carboxymethyl)-N-[3,5-bis(hexyloxy)phenyl]glycine]	25%
CCCCCCCCCCOc1cc(OCCCCCCCCCC)cc(N(CC(=O)OCCN(CC)CC)CC(=O)OCCN(CC)CC)c1 [Example 130, N-[3,5-bis(Decyloxy)phenyl]-N-[2-[2-(diethylamino)ethoxy]-2-oxoethyl]glycine 2-(diethylamino)ethyl ester dihydrochloride]	2%

Biological target: T1, HSF-PLA2 (Homo sapiens, UniProt P14555)
T1 construct: extracellular enzyme obtained from human synovial fluid (HSF-PLA2); from tissue; host or cells: pooled human synovial fluid, added at 0.1% (v/v)
T1 sequence (P14555 21-144): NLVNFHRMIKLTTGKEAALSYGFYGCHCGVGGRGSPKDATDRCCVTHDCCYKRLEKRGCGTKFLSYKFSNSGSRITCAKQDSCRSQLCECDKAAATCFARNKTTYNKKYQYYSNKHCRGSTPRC
Assay: Assay for Inhibition of HSF-PLA2 In Vitro
Assay type: biochemical
Conditions: (1 μM); read-out: Inhib of HSF-PLA2, % inhibition
Method: Assay for Inhibition of HSF-PLA2 In Vitro
The PLA2 used in this test is the extracellular enzyme obtained from human synovial fluid (HSF-PLA2).
The optimal conditions which were developed for the assay of HSF-PLA2 inhibitors are summarized as follows. […] The reaction was initiated by the addition of HSF-PLA2 and duplicate samples of the mixture were incubated in 13×100 mm glass tubes with shaking for 30 minutes at 37° C. […] The extraction of lipids from the stopped reaction mixture was conducted by the further additions of […] of chloroform and 1 ml of water with mixing. After centrifuging, the lower chloroform phase was transferred to smaller glass tubes and the solvent was evaporated to dryness with a nitrogen stream. The extracted lipid residue was redissolved in 50 μl of a solution containing carrier oleic acid (0.2 mg/ml) of chloroform-methanol [9 to 1, v/v]). The whole lipid extract was applied to a preactivated (30 minutes at 110° C.) silica gel-impregnated glass fiber thin layer chromatography sheet (ITLC type SG sheet from Gelman Sciences, Inc., Ann Arbor, Mich.) using hexane-acetic acid (100 to 1, v/v) as the developing solvent. This TLC system rapidly (6 minutes) resolved the enzymatically released product, ^14 C-oleic acid, from the unreacted ^14 C-phospholipid substrate. The unsaturated lipids were located on the chromatogram by a brief exposure to iodine vapor. […] A control incubation of substrate in the absence of HSF-PLA2 was performed in each experiment.

inhibition at 1 µM	Structure (SMILES)
64%	CCCCCCCCCC(=O)Oc1cc(OC(=O)CCCCCCCCC)cc(N(CC(=O)O)CC(=O)O)c1 [Example 6u, N-(carboxymethyl)-N-[3,5-bis[(1-oxodecyl)oxy]phenyl]glycine]
67%	CCCCCCCCCCCCCCc1ccc(N(CC(=O)O)CC(=O)O)cc1 [Example 39, N-(carboxymethyl)-N-(4-tetradecylphenyl)glycine]
39%	CCCCCCCCCCc1ccc(N(CC(=O)O)CC(=O)O)cc1 [Example 39d, N-(carboxymethyl)-N-(4-decylphenyl)glycine]

Same assay, conditions: (5 μM); read-out: Inhib of HSF-PLA2, % inhibition

inhibition at 5 µM	Structure (SMILES)
67%	CCCCC/C=C\C/C=C\CCCCCCCC(=O)Nc1cccc(N(CC(=O)O)CC(=O)O)c1 [Example 51, N-(carboxymethyl)-N-[3-[(9Z,12Z)-(1-oxo-9,12-octadecadienyl)amino]phenyl]glycine]
63%	CCCCCCCC/C=C\CCCCCCCC(=O)Nc1cccc(N(CC(=O)O)CC(=O)O)c1 [Example 51]

Same assay, conditions: (10 μM); read-out: Inhib of HSF-PLA2, % inhibition

Structure (SMILES)	inhibition at 10 µM
O=C(O)CN(CC(=O)O)c1cc(C(=O)NC23CC4CC(CC(C4)C2)C3)cc(C(=O)NC23CC4CC(CC(C4)C2)C3)c1 [Example 6s]	30%
CCCCCCCCCCCCCCCCCCCc1cc(CCCCCCCCCCCCCCCCCCC)cc(N(CC(=O)O)CC(=O)O)c1 [Example 6t, N-(carboxymethyl)-N-(3,5-dinonadecylphenyl)glycine]	39%

The next lines start with the values.

inhibition at 10 µM	Structure (SMILES)
46%	CCCCCCCCCCNC(=O)c1cccc(N(CC(=O)O)CC(=O)O)c1 [Example 36d, N-(carboxymethyl)-N-[[(decylamino)carbonyl]phenyl]glycine]
19%	O=C(O)CN(CC(=O)O)c1cccc(OCCOc2ccc3ccccc3c2)c1 [Example 36g, N-(carboxymethyl)-N-[(3-(2-naphthalenyloxy)ethoxy]phenyl]glycine]
73%	CCCCCCCCCCCCCCOc1cc(NCC(=O)O)cc(OCCCCCCCCCCCCCC)c1 [Example 127c, N-[3,5-bis(tetradecyloxy)phenyl]glycine]

Same assay, conditions: (20 μM); read-out: Inhib of HSF-PLA2, % inhibition

inhibition at 20 µM	Structure (SMILES)
6%	O=C(O)CCCCOc1cc(OCCCCC(=O)O)cc(N(CC(=O)O)CC(=O)O)c1 [Example 6i, N-(carboxymethyl)-N-[3,5-bis[(5-hydroxy-5-oxopentyl)oxy]phenyl]glycine]
25%	O=C(O)CN(CC(=O)O)c1cccc(C(=O)NC23CC4CC(CC(C4)C2)C3)c1 [Example 36h, N-(carboxymethyl)-N-[3-[(tricyclo[3.3.1.1/3,7/]dec-1-ylamino)carbonyl]phenyl]glycine]
-10%	O=C(O)CN(CC(=O)O)c1ccccc1 [Example 39a, N-(carboxymethyl)-N-phenylglycine]

Same assay, conditions: read-out: Inhib of HSF-PLA2 IC50

Structure (SMILES)	IC50
CCCCCCCCC(O)COc1cc(OCC(O)CCCCCCCC)cc(N(CC(=O)O)CC(=O)O)c1 (racemic) [Example 6h, rac-N-(carboxymethyl)-N-[3,5-bis[[2-hydroxydecyl)oxy]phenyl]glycine]	500 nM
CCCCCCCCC(O)COc1cc(NCC(=O)O)cc(OCC(O)CCCCCCCC)c1 (stereo not shown) [127 d]	3500 nM
CCCCOc1cc(OCCCC)cc(N(CC(=O)O)CC(=O)O)c1 [Example 6a, N-[3,5-bis(butoxy)phenyl]-N-(carboxymethyl)glycine]	2000 nM
CCCCCCOc1cc(OCCCCCC)cc(N(CC(=O)O)CC(=O)O)c1 [Example 6b, N-(carboxymethyl)-N-[3,5-bis(hexyloxy)phenyl]glycine]	2100 nM
CCCCCCCCCCCCCCCCCCOc1cc(OCCCCCCCCCCCCCCCCCC)cc(N(CC(=O)O)CC(=O)O)c1 [Example 6f, N-(carboxymethyl)-N-[3,5-bis(octadecyloxy)phenyl]glycine]	500 nM
O=C(O)CN(CC(=O)O)c1cc(OCCCOc2cccc(-c3ccccc3)c2)cc(OCCCOc2cccc(-c3ccccc3)c2)c1 [Example 6m]	580 nM
O=C(O)CN(CC(=O)O)c1cc(OCCCOc2ccc(-c3ccccc3)cc2)cc(OCCCOc2ccc(-c3ccccc3)cc2)c1 [Example 6n]	400 nM
O=C(O)CN(CC(=O)O)c1cc(OCCOc2ccc3ccccc3c2)cc(OCCOc2ccc3ccccc3c2)c1 [Example 6o, N-(carboxymethyl)-N-[3,5-bis[2-[2-naphthalenyloxy)]ethoxy]glycine]	600 nM
O=C(O)CN(CC(=O)O)c1cc(OCCOc2cccc3ccccc23)cc(OCCOc2cccc3ccccc23)c1 [Example 6p, N-(carboxymethyl)-N-[3,5-bis[2-[1-naphthalenyloxy)]ethoxy]glycine]	2000 nM
CCCCCCCCCCCCCCCCCCNC(=O)c1cc(C(=O)NCCCCCCCCCCCCCCCCCC)cc(N(CC(=O)O)CC(=O)O)c1 [Example 6r, N-(carboxymethyl)-N-[3,5-bis[(octadecylamino)carbonyl]phenyl]glycine]	640 nM
CCCCCCCCCC(=O)Nc1cc(NC(=O)CCCCCCCCC)cc(N(CC(=O)O)CC(=O)O)c1 [Example 21]	3800 nM
CCCCCCCCCCc1cc(CCCCCCCCCC)cc(N(CC(=O)O)CC(=O)O)c1 [Example 29, N-(Carboxymethyl)-N-(3,5-didecylphenyl) glycine]	1500 nM
CCCCC/C=C\C/C=C\CCCCCCCCOc1cccc(N(CC(=O)O)CC(=O)O)c1 [Example 49, N-(carboxymethyl)-N-[3-[(9Z,12Z)-(9,12-octadecadienyl]oxy]phenyl]glycine]	200 nM
CCCCCCCC/C=C\CCCCCCCCOc1cccc(N(CC(=O)O)CC(=O)O)c1 [Example 49]	300 nM
CCCCCCCCCCCCCCCCCCOc1cc(OC(C)=O)cc(N(CC(=O)O)CC(=O)O)c1 [Example 80]	220 nM
CCCCCCCCCCCCCCCCCCOc1cc(NCC(=O)O)cc(OC(=O)C23CC4CC(CC(C4)C2)C3)c1 [Example 175, N-[[3-(Octadecyloxy)-5-(tricyclo[3.3.1.1/3.7/]dec-1-ylcarbonyl)oxy]phenyl]glycine]	300 nM

More lines, now with the values ahead:

IC50	Structure (SMILES)
200 nM	CCCCCCCCCCCCCCCCCCCc1cccc(N(CC(=O)O)CC(=O)O)c1 [Example 36f, N-(carboxymethyl)-N-(3-nonadecylphenyl)glycine]
80 nM	CCCCCCCCCCCCCCCCCCOc1cc(OCCCCCCCCCCC(=O)OC)cc(N(CC(=O)O)CC(=O)O)c1 [Example 58d, N-(carboxymethyl)-N-[3-(11-methoxy-11-oxoundecyloxy)-5-(octadecyloxy)phenyl]glycine]
200 nM	CCCCCCCCCCCCCCCCCCOc1cc(OCCCCCCCCCCC(=O)O)cc(N(CC(=O)O)CC(=O)O)c1 [Example 58e]
300 nM	CCCCCCCCCCCCCCCCCCOc1cc(OC(=O)C23CC4CC(CC(C4)C2)C3)cc(N(CC(=O)O)CC(=O)O)c1 [Example 58f, N-(Carboxymethyl)-N-[[3-(octadecyloxy)-5-(tricyclo[3.3.1.1/3,7]dec-1-ylcarbonyl)oxy]phenyl]glycine]
100 nM	CCCCCCCCCCCCCCCCCCOc1cc(OC(=O)C(c2ccccc2)c2ccccc2)cc(N(CC(=O)O)CC(=O)O)c1 [Example 58g]
300 nM	CCCCCCCCCCCCCCCCCCOc1cc(OCCCOc2cccnc2)cc(N(CC(=O)O)CC(=O)O)c1 [Example 58i]
160 nM	CCCCCCCCCCOc1ccc(N(CC(=O)O)CC(=O)O)cc1OCCCCCCCCCC [Example 119a, N-(carboxymethyl)-N-[3,4-bis(decyloxy)phenyl]glycine]
